Article PMC11352945, “Anticancer Activity of Benzo[a]phenoxazine Compounds Promoting Lysosomal Dysfunction” (Cells, 2024)
Converted amounts (≈) assume the structure as drawn.

Experiments:
[1] = tested on: MCF7 cells; assay: Sulforhodamine B (SRB) cell viability assay, MCF7; type: cell-based; details: Homo sapiens, breast cancer cell line, 48 h, read-out: IC50 (μM) ± SD, MCF7
Experimental: (§1) The cells were allowed to adhere overnight, from 12 h to 18 h, and then treated with increasing concentrations of each compound, C9, A36, and A42 (0.125 μM, 0.25 μM, 0.5 μM, 1 μM, 2.5 μM, and 5 μM), in their respective culture mediums for 48 h. In addition to a negative control that consisted only of cells and growth medium, a negative control containing the highest concentration of the solvent in which the compound was dissolved (DMSO 0.1%) was also used. The SRB assay was performed according to Marques et al.. The IC50 values were obtained using GraphPad Prism version 8.2.1 through the application of a sigmoidal dose–response nonlinear regression, after logarithmic transformation. The selectivity index was determined by dividing the IC50 value of the non-neoplastic BJ-5ta cell line by the IC50 value of the cancer cell lines (IC50 BJ-5ta/IC50 cancer cell line); furthermore, for the CRC model, a second selectivity index was also determined using the non-neoplastic NCM460 cell line (IC50 NCM460/IC50 CRC cell line). According to the results of the selectivity index, the cell line with the highest selectivity value for each of the models, CRC and breast, was selected for subsequent characterization.
(§2) Three CRC-derived cell lines, SW480 (KRAS^G12V), HCT116 (KRAS^G13D), and RKO (BRAF^V600E), harboring somatic mutations on KRAS or BRAF, and two breast-cancer-derived cell lines, MDA-MB-231 (basal like) and MCF7 (luminal A subtype), together with two non-neoplastic cell lines, NCM460 (normal colon mucosal epithelial cell line) and BJ-5ta (normal foreskin fibroblast cell line), were used to study the activity and selectivity of the three new benzo[a]phenoxazine compounds, C9, A36, and A42. All cell lines were treated with a range of drug concentrations (0.125 μM, 0.25 μM, 0.5 μM, 1 μM, 2.5 μM, and 5 μM) for 48 h, and the effect on cell viability was assessed using a sulforhodamine B assay (SRB) (Figure 2). […] In addition, the selectivity index was determined using the BJ-5ta cell line as a reference, as well as the NCM460 cell line for the CRC model (Table 1).

[2] = tested on: RKO cells; assay: Lysosomal membrane permeabilization (acridine orange, flow cytometry), RKO; type: cell-based, human; details: 4 × IC50, 48 h
Experimental: (§3) RKO and MCF7 lysosomal membrane permeabilization (LMP) was evaluated through flow cytometry using the Acridine Orange (A.O) probe. RKO and MCF7 cells were seeded in 12-well plates at a density of 1 × 10^5 cells/mL. After 24 h, the cells were treated with the compounds C9, A36, and A42 at 2 × IC50 and 4 × IC50 concentrations or 0.1% DMSO (vehicle). As a control, untreated cells were employed. Following a 48 h period, the adherent and floating cells were collected and subjected to a 15-min dark incubation period at 37 °C with 1 μM A.O. After that, the samples were examined by flow cytometry using the PC5.5 channel.
(§4) Following the information obtained with the lead compound and considering the microscopic observations made with these new compounds, we next investigated whether their toxicity was also associated with lysosome targeting. To this end, we evaluated the induction of lysosomal membrane permeabilization (LMP) by flow cytometry, using acridine orange (AO) as probe. This probe allows for an assessment of permeabilization, as its fluorescence decreases upon the release of lysosomal protons. […] The cells that presented decreased AO fluorescence were considered to have permeabilized lysosomes.

[3] = tested on: RKO cells; assay: ROS levels (DHE, flow cytometry), RKO; type: cell-based, human; details: 2 × IC50 and 4 × IC50, 48 h
Experimental: (§5) The RKO and MCF7 ROS levels were evaluated through flow cytometry using the dihydroethidium (DHE) probe. RKO and MCF7 cells were seeded in 12-well plates at a density of 1 × 10^5 cells/mL. After 24 h, the cells were treated with the compounds C9, A36, and A42 at 2 × IC50 and 4 × IC50 concentrations or 0.1% DMSO (vehicle). As a control, untreated cells were used. The cells were collected after 48 h of treatment, washed with PBS 1×, and stained for 30 min at 37 °C in the dark using 0.5 μM DHE. The DHE mean fluorescence intensity was analyzed by flow cytometry using the PE-A channel.
(§6) Since ROS generation is reported to precede LMP and cell death, and in view of reports showing that some compounds of this family increase intracellular ROS levels under certain circumstances, we also investigated whether C9, A36, and A42 had any effects in this regard.

[4] = tested on: NCM460 cells; assay: Sulforhodamine B (SRB) cell viability assay, NCM460; type: cell-based; details: Homo sapiens, non-neoplastic cell line, 48 h, read-out: IC50 (μM) ± SD, NCM460
Experimental: as §1, §2

[5] = tested on: MCF7 cells; assay: ROS levels (DHE, flow cytometry), MCF7; type: cell-based, human; details: MCF7, 2 × IC50 and 4 × IC50, 48 h
Experimental: as §5, §6

[6] = tested on: S. cerevisiae; details: yeast S. cerevisiae, microdilution; cited from earlier work
[7] = tested on: MCF7 cells; assay: Intracellular pH evaluation (BCECF-AM, flow cytometry), MCF7; type: cell-based, human; details: MCF7, 2 × IC50 and 4 × IC50, 48 h
Experimental: Evaluations of the intracellular pHs (pHi) of the RKO and MCF7 cells were performed through a flow cytometry optimized protocol using the pH-sensitive probe BCECF-AM. RKO and MCF7 cells were seeded in 12-well plates at a density of 1 × 10^5 cells/mL. After 24 h, the cells were treated with the compounds C9, A36, and A42 at 2 × IC50 and 4 × IC50 concentrations or 0.1% DMSO (vehicle). As a control, untreated cells were used. Attached and floating cells were collected, washed, and then resuspended in Hank’s balanced salt solution (HBSS) after a 48 h treatment period. After that, the cells were stained with 1 μM of BCECF-AM for 30 min at 37 °C. The samples were analyzed by flow cytometry. The FITC-A and PE-A channels were used to detect the fluorescence mean of BCECF-AM.
To further support LMP’s role in cell death induction, we investigated the effects of the compounds on intracellular pH (pHi), as LMP induction is associated with an increase in cytosolic proton levels and, as a result, a reduction in intracellular pH [67, 68, 69]. We used the dual-emission ratiometric pH-sensitive probe BCECF-AM, which emits fluorescence based on pHi. The result of acidification was shown by a decrease in the fluorescence ratio between BCECF-AM green (FITC-FL1) and red fluorescence (PE-FL2) (FL1/FL2). […]

[8] = tested on: MCF7 cells; assay: Lysosomal membrane permeabilization (acridine orange, flow cytometry), MCF7; type: cell-based, human; details: MCF7, 4 × IC50, 48 h
Experimental: as §3, §4

Q: With `CCCNc1cc2oc3cc(=NCC)c(C)cc-3nc2c2ccccc12` [C9] as the molecule, how does the IC50 [1] read?
A: 0.84 ± 0.06 µM

Q: What about the “Percentage of cells with LMP (permeabilized lysosomes)” value [2] of the same molecule?
A: more than 80%

Q: And the “ROS levels (fluorescence mean of DHE)” value [3]?
A: higher intensity

Q: What about the IC50 [4] of the same molecule?
A: 1.12 ± 0.13 µM

Q: What about the “ROS levels (fluorescence mean of DHE)” value [5] of the same molecule?
A: higher intensity

Q: What about the “MIC (minimum inhibitory concentration)” value [6] of the same molecule?
A: 6.25 µM (≈ 2.16 µg/mL)

Q: What about the “Intracellular acidification (BCECF-AM FL1/FL2 ratio)” value [7] of the same molecule?
A: most pronounced effect

Q: And the “Percentage of cells with LMP (permeabilized lysosomes)” value [8]?
A: more than 80%
